System: human cervical mucus
Assay: Cervical mucus score (WHO): viscosity, ferning, spinnbarkeit, cellularity, pH
Conditions: for TOTAL cervical mucus score: pH not included
[1] = ascorbic acid 0.31%, fourth sample (undated)
[2] = ascorbic acid 0.31%, sample Jun. 22, 2000
[3] = ascorbic acid 0.31%, sample Jun. 23, 2000
[4] = ascorbic acid 0.31%, third sample (undated)
[5] = ascorbic acid 0.63%, fourth sample (undated)
[6] = ascorbic acid 0.63%, sample Jun. 22, 2000
[7] = ascorbic acid 0.63%, sample Jun. 23, 2000
[8] = ascorbic acid 0.63%, third sample (undated)
[9] = ascorbic acid 1%, fourth sample (undated)
[10] = ascorbic acid 1%, sample Jun. 22, 2000
[11] = ascorbic acid 1%, sample Jun. 23, 2000
[12] = ascorbic acid 1%, third sample (undated)
[13] = ascorbic acid 1.25%, fourth sample (undated)
[14] = ascorbic acid 1.25%, sample Jun. 22, 2000
[15] = ascorbic acid 1.25%, sample Jun. 23, 2000
[16] = ascorbic acid 1.25%, third sample (undated)
[17] = ascorbic acid 2.50%, fourth sample (undated)
[18] = ascorbic acid 2.50%, sample Jun. 22, 2000
[19] = ascorbic acid 2.50%, sample Jun. 23, 2000
[20] = ascorbic acid 2.50%, third sample (undated)
[21] = ascorbic acid 5%, fourth sample (undated)
[22] = ascorbic acid 5%, sample Jun. 22, 2000
[23] = ascorbic acid 5%, sample Jun. 23, 2000
[24] = ascorbic acid 5%, third sample (undated)
[25] = ascorbic acid 10%, fourth sample (undated)
[26] = ascorbic acid 10%, sample Jun. 22, 2000
[27] = ascorbic acid 10%, sample Jun. 23, 2000
[28] = ascorbic acid 10%, third sample (undated)

## O=C1O[C@H]([C@@H](O)CO)C(O)=C1O [ascorbic acid, L-ascorbic acid]
L-ascorbic acid from 0.31% to a range of 1-2.5%
  overall viscosity of the mucus: increased in direct relationship with increasing concentrations
[1]
  Cellularity (cervical mucus score): 0
  Ferning (cervical mucus score): 0
  Spinnbarkiet (cervical mucus score): 1 ± .35
  Viscosity (cervical mucus score): 2 ± .79
  TOTAL cervical mucus score: 3.2
[2]
  Cellularity (cervical mucus score): 2 ± .86
  Ferning (cervical mucus score): 2 ± .86
  Spinnbarkiet (cervical mucus score): 0 (less than 1 cm)
  Viscosity (cervical mucus score): 3 ± .79
  TOTAL cervical mucus score: 7.3
[3]
  Cellularity (cervical mucus score): 2 ± .58
  Ferning (cervical mucus score): 0
  Spinnbarkeit (cervical mucus score): 1 ± .35
  Viscosity (cervical mucus score): 3 ± .79
  TOTAL cervical mucus score: 6.2
[4]
  Cellularity (cervical mucus score): 1 ± .58
  Ferning (cervical mucus score): 0
  Spinnbarkeit (cervical mucus score): 0 (less than 1 cm)
  Viscosity (cervical mucus score): 2 ± .79
  TOTAL cervical mucus score: 3.15
[5]
  Cellularity (cervical mucus score): 0
  Ferning (cervical mucus score): 3 ± .86
  Spinnbarkiet (cervical mucus score): 1 ± .49
  Viscosity (cervical mucus score): 3 ± .81
  TOTAL cervical mucus score: 7.2
[6]
  Cellularity (cervical mucus score): 0
  Ferning (cervical mucus score): 0
  Spinnbarkiet (cervical mucus score): 1 ± .49
  Viscosity (cervical mucus score): 1 ± .81
  TOTAL cervical mucus score: 2.3
[7]
  Cellularity (cervical mucus score): 0
  Ferning (cervical mucus score): 0
  Spinnbarkeit (cervical mucus score): 1 ± .49
  Viscosity (cervical mucus score): 2 ± .81
  TOTAL cervical mucus score: 3.2
[8]
  Cellularity (cervical mucus score): 1 ± .61
  Ferning (cervical mucus score): 0
  Spinnbarkeit (cervical mucus score): 1 ± .49
  Viscosity (cervical mucus score): 1 ± .81
  TOTAL cervical mucus score: 3.15
[9]
  Cellularity (cervical mucus score): 0
  Ferning (cervical mucus score): 3 ± .82
  Spinnbarkiet (cervical mucus score): 1 ± .51
  Viscosity (cervical mucus score): 2 ± .75
  TOTAL cervical mucus score: 6.2
[10]
  Cellularity (cervical mucus score): 2 ± .82
  Ferning (cervical mucus score): 2 ± .82
  Spinnbarkiet (cervical mucus score): 1 ± .51
  Viscosity (cervical mucus score): 1 ± .75
  TOTAL cervical mucus score: 6.3
[11]
  Cellularity (cervical mucus score): 0
  Ferning (cervical mucus score): 0
  Spinnbarkeit (cervical mucus score): 1 ± .51
  Viscosity (cervical mucus score): 2 ± .75
  TOTAL cervical mucus score: 3.2
[12]
  Cellularity (cervical mucus score): 0
  Ferning (cervical mucus score): 0
  Spinnbarkeit (cervical mucus score): 1 ± .51
  Viscosity (cervical mucus score): 2 ± .75
  TOTAL cervical mucus score: 3.15
[13]
  Cellularity (cervical mucus score): 1 ± .53
  Ferning (cervical mucus score): 2 ± 1.13
  Spinnbarkiet (cervical mucus score): 1 ± 51
  Viscosity (cervical mucus score): 3 ± .95
  TOTAL cervical mucus score: 7.2
[14]
  Cellularity (cervical mucus score): 0
  Ferning (cervical mucus score): 0
  Spinnbarkiet (cervical mucus score): 1 ± .51
  Viscosity (cervical mucus score): 1 ± .95
  TOTAL cervical mucus score: 2.3
[15]
  Cellularity (cervical mucus score): 0
  Ferning (cervical mucus score): 0
  Spinnbarkeit (cervical mucus score): 1 ± .51
  Viscosity (cervical mucus score): 3 ± .95
  TOTAL cervical mucus score: 4.2
[16]
  Cellularity (cervical mucus score): 1 ± .53
  Ferning (cervical mucus score): 0
  Spinnbarkeit (cervical mucus score): 0 (less than 1 cm)
  Viscosity (cervical mucus score): 1 ± .95
  TOTAL cervical mucus score: 2.15
[17]
  Cellularity (cervical mucus score): 1 ± .49
  Ferning (cervical mucus score): 1 ± .82
  Spinnbarkiet (cervical mucus score): 1 ± .14
  Viscosity (cervical mucus score): 2 ± .61
  TOTAL cervical mucus score: 5.2
[18]
  Cellularity (cervical mucus score): 0
  Ferning (cervical mucus score): 0
  Spinnbarkiet (cervical mucus score): 1 ± .14
  Viscosity (cervical mucus score): 2 ± .61
  TOTAL cervical mucus score: 3.3
[19]
  Cellularity (cervical mucus score): 1 ± .49
  Ferning (cervical mucus score): 0
  Spinnbarkeit (cervical mucus score): 1 ± .14
  Viscosity (cervical mucus score): 0
  TOTAL cervical mucus score: 2.2
[20]
  Cellularity (cervical mucus score): 1 ± .49
  Ferning (cervical mucus score): 0
  Spinnbarkeit (cervical mucus score): 0 (less than 1 cm)
  Viscosity (cervical mucus score): 1 ± .61
  TOTAL cervical mucus score: 2.15
[21]
  Cellularity (cervical mucus score): 1 ± .66
  Ferning (cervical mucus score): 0
  Spinnbarkiet (cervical mucus score): 1 ± .35
  Viscosity (cervical mucus score): 2 ± .52
  TOTAL cervical mucus score: 4.2
[22]
  Cellularity (cervical mucus score): 0
  Ferning (cervical mucus score): 0
  Spinnbarkiet (cervical mucus score): 1 ± .35
  Viscosity (cervical mucus score): 2 ± .52
  TOTAL cervical mucus score: 3.3
[23]
  Cellularity (cervical mucus score): 0
  Ferning (cervical mucus score): 0
  Spinnbarkeit (cervical mucus score): 0 (less than 1 cm)
  Viscosity (cervical mucus score): 2 ± .52
  TOTAL cervical mucus score: 2.2
[24]
  Cellularity (cervical mucus score): 0
  Ferning (cervical mucus score): 0
  Spinnbarkeit (cervical mucus score): 1 ± .35
  Viscosity (cervical mucus score): 2 ± .25
  TOTAL cervical mucus score: 2.15
[25]
  Cellularity (cervical mucus score): 0
  Ferning (cervical mucus score): 0
  Spinnbarkiet (cervical mucus score): 0 (less than 1 cm)
  Viscosity (cervical mucus score): 0
  TOTAL cervical mucus score: 0.2
[26]
  Cellularity (cervical mucus score): 1 ± .53
  Ferning (cervical mucus score): 1 ± .53
  Spinnbarkiet (cervical mucus score): 1 ± .26
  Viscosity (cervical mucus score): 1 ± .69
  TOTAL cervical mucus score: 4.3
[27]
  Cellularity (cervical mucus score): 1 ± .51
  Ferning (cervical mucus score): 1 ± .53
  Spinnbarkeit (cervical mucus score): 1 ± .26
  Viscosity (cervical mucus score): 2 ± .69
  TOTAL cervical mucus score: 5.2
[28]
  Cellularity (cervical mucus score): 1 ± .51
  Ferning (cervical mucus score): 0
  Spinnbarkeit (cervical mucus score): 1 ± .26
  Viscosity (cervical mucus score): 1 ± .69
  TOTAL cervical mucus score: 3.15
